This is an account of results in patent publication US20200268864A1, “CANCER VACCINE COMPOSITIONS AND METHODS FOR USING SAME TO TREAT CANCER” (Dana-Farber Cancer Institute, Inc., priority 2017, published 2020).

Assay [1] deals with PBM tumor-bearing mice. Description: Cytokine array of plasma/sera. The conditions noted are these: day 2 of treatment. The class given is in vivo, mouse. The protocol:
(§1) Blood was obtained by retro-orbital sampling at intermediate time points or experimental end points. Blood cells and plasma/sera were separated by centrifugation at 1,500×g for 5 min. at 4° C. Plasmaisera were sent out to Eve Technologies for cytokine array analysis (Chemokine Array 31-Plex and Mouse Procarta IFN 2-plex Featured Assay). Plasma/sera were applied to ELISA according to manufacturer's instructions. For in vitro experiments, cell culture supernatants were obtained by centrifugation at 1,500×g for 5 min. at 4° C. to remove all debris and cells, and were then subjected to ELISA analysis. IFN-β was detected using the LEGEND MAX™ Mouse IFN-β ELISA Kit (BioLegend).

For assay [2], the system named is STING pathway in PBM tumors. Description: STING pathway activation in PBM tumors (p-TBK1/p-IRF3 flow cytometry, IFN-β/CXCL10 RT-qPCR). The assay is classed as in vivo, mouse. The conditions noted are these: for phosphorylation of TBK1 and IRF3 in intratumoral DCs and macrophages: PBM tumors. The protocol: Tumors were first mechanically disrupted by chopping, then chemically digested in collagenase buffer (8 mL DMEM, 0.1 mL 1M HEPES, 0.5 mL FBS, 0.2 mL Pen/Strep, 1 m, 10× collagenase/hyaluronidase (Stemcell Technologies), 0.2 mL of 1 mg/mL DNase I (Stemcell Technologies) at 37° C. for 45 min. Single-cell suspensions of spleen and lymph nodes were obtained by mashed through a 70 um strainer using the plunger of a 3 mL or 5 mL syringe. Single cells suspensions were treated with red blood lysis buffer (4 mL NH4Cl+1 mL PBS with 2% calf serum) and washed with FACS buffer. Single cells suspensions were incubated with LIVE/DEAD Fixable Aqua Dead Cell Stain (Life Technologies, Cat # L34965) for 30 min and then blocked with anti-CD16/32 (BioLegend, clone 93) for 20 min on ice. Samples were then incubated with appropriate antibodies for 30 min. on ice. The Foxp3 staining buffer set (eBioscience, Cat #00-5523-00) was applied for intracellular markers staining. For the intracellular cytokine analysis, cells were stimulated with Leukocyte Activation Cocktail (BD Biosciences, Cat #550583) at 37° C. for 5 hours prior to FACS staining. The following antibodies were used in the experiments and were purchased from BioLegend unless otherwise indicated: CD45 (clone 30-F11), TCRβ (clone H57-597), CD4 (clone RM4-5), CD8 (clone 53-6.7), CD44 (clone IM7), CD62L (MEL-14), CD25 (PC61), IFNγ (clone XMG1.2), TNFα(clone MP6-XT22), PD-1 (clone 29F.1A12), Tim-3 (clone RMT3-23), LAG-3 (clone C9B7W), CD11b (clone M1/70), CD11c (clone […]), F4/80 (clone BM8), Gr-1 (clone RB6-BC5), Ly-6C (clone HK1.4), Ly-6G (clone 1A8), MHCII (clone M5/114.15.2), CD80 (clone 16-10A1), CD86 (clone GL-1), MHC1 (clone KH114). […] Flow cytometry was performed on an LSR II (BD Biosciences) or LSRFortessa™ HTS (BD Biosciences) at the DFCI flow cytometry core facility, and all the data were analyzed using FlowJo software. […]
(In general: In flow cytometry, cells or beads pass a laser one at a time.)

Assay [3] has as its system STING pathway in BMDCs co-cultured with PBM cells. Description: Co-culture of BMDCs with olaparib-treated PBM tumor cells. The class given is cell-based, mouse. The protocol: as §1
Bone marrow cells were isolated from FVB/NJ mice and cultured in RPMI-1640 containing 10% FBS and 20 ng/ml GM-CSF. BMDCs (bone marrow derived dendritic cells) were harvested for in vitro co-culture assay on day 7 to day 10. About 3×10^5 PBM or PPM tumor cells were cultured in a 6-well plate for 24 hr. and then treated with DMSO or olaparib. After 24 hr incubation with DMSO, olaparib, or olaparib in combination with other drugs (cell cycle inhibitor or apoptosis inhibitor), drugs were removed and tumor cells were washed twice with PBS. BMDCs were added and co-cultured with PBM or PPM cells at a ratio of 1:1 in 1.5 ml culture media in the presence of GM-CSF (20 ng/ml) and lipofectamine (2 μl) for 24 hr. Co-cultured cells were harvested for flow cytometry analysis and floating cells (percentage of BMDCs is about 90%), or RNA analysis. Cell culture supernatants were collected for detection of IFN-β with the ELISA kit. BMDCs generated from C57BL/6J mice were applied for the coculture of BMDCs with ID8 tumor cells. Human dendritic cells purchased from Lonza were used for the coculture of human DCs with DMSO or olaparib-treated human ovarian cancer cells ([…] and UWB1.289+BRCA1).
About 50 to 100 mg of tumor samples were homogenized in 1 ml of TRIzol™ Reagent supplied with 200 μl of stainless steel beads and 0.2 ml of chloroform was added to the samples. Samples were vortexed vigorously for 15 seconds and then incubated at room temperature for 2 to 3 minutes. After centrifugation at 12,000×g for 15 minutes at 4° C., upper aqueous phase of the samples was carefully removed to a new tube and the total RNA was purified using an RNeasy® Mini Kit (Qiagen) according to manufactory's instruction. For the in vitro cultured cell samples, total RNA was isolated using an RNeasy® Mini Kit. The qPCR was performed on an Applied Biosystems 7300 machine after the total RNA was reverse transcribed to cDNA using the SuperScript® III First-Strand Synthesis System (Invitrogen). Primers used for qPCR were as follows: […]

In assay [4] the test system is PPM cells. Description: Cytosolic dsDNA (PicoGreen) and micronuclei staining, PPM cells. The assay is classed as cell-based, mouse. The conditions noted are these: 2.5 μM, 24 h. The protocol: PBM and PPM cells were cultured on chambered cell culture slides (BD Falcon). Cells were treated with 2.5 μM olaparib or vehicle control (DMSO) for 24 hours. Following the treatment, cells were incubated with culture media containing PicoGreen double-stranded DNA stain (200-fold dilution, Life Technologies). After one-hour incubation, cells were fixed with 4% paraformaldehyde in PBS (Santa Cruz Biotechnology) for 10 minutes. Cells were then washed twice with PBS and stained with 300 nM DAPI (Thermo Fisher Scientific) for 10 minutes. Coverslips were mounted using ProLong Diamond Antifade Mountant (Thermo Fisher Scientific). Staining was imaged using a Leica SP5X laser scanning confocal microscope.

The subject of assay [5] is PBM cells. Description: Cell death of PBM cells in culture. The class given is cell-based, mouse. The conditions noted are these: 2.5 uM for 24 hours.

Each structure is given as a SMILES string. “Also recorded” adds a separate entry of the source.

Turning to `O=C(c1cc(Cc2n[nH]c(=O)c3ccccc23)ccc1F)N1CCN(C(=O)C2CC2)CC1` [olaparib, Olaparib], the “plasma/sera cytokine levels (CXCL9, CXCL10, IFNβ and others)” value in assay [1] is “significant increase; also recorded: increased levels of multiple cytokines”; in assay [1] (listed as Olaparib) it was “changes on the levels of various cytokines”. The “phosphorylation of TBK1 and IRF3 in intratumoral DCs and macrophages” value in assay [2] is “increased pTBK1+p-IRF3+”; in assay [2] (listed as Olaparib), “increased phosphorylation”. Besides, in assay [2] (RT-qPCR), the “IFN-β and CXCL10 expression in PBM tumor tissues” value was “induction; also recorded: Increased expression”. In assay [3] (co-cultured with olaparib-treated PBM cells vs DMSO), the “phosphorylation of TBK1 and IRF3 (p-TBK1+p-IRF3+) in BMDCs” value is listed as “increased phosphorylation”. In addition, the “IFN-β and CXCL10 expression in BMDCs” value in assay [3] (co-cultured with olaparib-treated vs non-treated/DMSO PBM cells, mRNA and protein) was “Significantly enhanced expression; also recorded: markedly increased expression”. Also, the “cytosolic dsDNAs and micronuclei” value in assay [4] is listed as “not”. The “cell death in PBM cells” value in assay [5] is reported as “did not induce substantial cell death”.
